Data on 17 compounds can be found in ChEMBL document CHEMBL5512668, “Macrocyclic Azapeptide Nitriles: Structure-Based Discovery of Potent SARS-CoV-2 Main Protease Inhibitors as Antiviral Drugs” (J Med Chem, 2024).

The test system of one series is SARS-CoV-2. Nature of the series: microbe, parasite or virus in culture. To be noted: Severe acute respiratory syndrome coronavirus 2, JPN/TY/WK-521, VeroE6/TMPRSS2.
The EC50 is the midpoint of the concentration-response curve. A low value points to a more potent agent. Compound `CN1C(=O)[C@H](Cc2ccccc2)N(C(=O)CNC(=O)c2cccs2)CCCOc2c(Cl)cccc2CN1C#N` came in with an EC50 of 2550 nM.
The same measure, in the same setting: to `CN1C(=O)[C@H](Cc2ccccc2)N(C(=O)COc2ccc(Cl)cc2Cl)CCCOc2c(Cl)cccc2CN1C#N` belongs 2140 nM.
Turning to `CC(C)(C)[C@H](NC(=O)C(F)(F)F)C(=O)N1C[C@H]2[C@@H]([C@H]1C(=O)N[C@H](C#N)C[C@@H]1CCNC1=O)C2(C)C`, the concentration giving a half-maximal response (EC50) worked out at 860 nM.

The target in the next series is Cathepsin S (Homo sapiens, UniProt P25774). Nature of the series: Inhibition of recombinant human cathepsin S using Z-Phe-Arg-AMC as substrate incubated for 60 mins.
Sequence of Cathepsin S (P25774 whole entry): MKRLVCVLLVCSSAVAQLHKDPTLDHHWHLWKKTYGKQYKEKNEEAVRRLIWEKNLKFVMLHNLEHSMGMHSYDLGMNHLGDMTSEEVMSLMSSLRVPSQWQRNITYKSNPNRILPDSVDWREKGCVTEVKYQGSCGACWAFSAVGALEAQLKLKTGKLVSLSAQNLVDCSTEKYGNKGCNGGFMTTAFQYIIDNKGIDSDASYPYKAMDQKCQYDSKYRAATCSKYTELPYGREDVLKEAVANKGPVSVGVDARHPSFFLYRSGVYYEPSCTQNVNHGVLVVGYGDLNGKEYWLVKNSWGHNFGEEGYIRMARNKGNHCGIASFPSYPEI
Conditions: not given
As usually defined, the Ki is the equilibrium dissociation constant of an inhibitor or competing ligand from its target. As for `CN1C(=O)[C@H](CCc2ccccc2)NC(=O)COCCOCCOc2ccc(F)cc2CN1C#N`, the inhibition constant (Ki) amounted to 662 nM.
Regarding `CN1C(=O)[C@H](Cc2ccccc2)N(C(=O)CNC(=O)c2cccs2)CCCOc2c(Cl)cccc2CN1C#N`, the inhibitory constant (Ki) turned out to be 470 nM.
On the same count and under the same terms, to `CN1C(=O)[C@H](CCc2ccccc2)NC(=O)COCCOc2ccc(F)cc2CN1C#N` belongs 179 nM.
Still for that read-out and setting: as for `CN1C(=O)[C@H](Cc2ccccc2)N(C(=O)COc2ccc(Cl)cc2Cl)CCCOc2ccc(Cl)c(F)c2CN1C#N`, the figure is 1820 nM.
The same measure, in the same setting: to `CN1C(=O)[C@H](Cc2ccccc2)NC(=O)COCCOCCOc2ccc(F)cc2CN1C#N` belongs 765 nM; to `CN1C(=O)[C@H](Cc2ccccc2)N(C(=O)[C@@H](NC(=O)c2cccs2)C(C)(C)C)CCCOc2ccc(Cl)c(F)c2CN1C#N`, 3020 nM.

The next series concerns the target T1, Replicase polyprotein 1ab (Severe acute respiratory syndrome coronavirus 2, UniProt P0DTD1).
Experiment: not given
Conditions: not given
Turning to `CN1C(=O)[C@H](Cc2ccccc2)N(C(=O)CNC(=O)c2cccs2)CCCOc2c(Cl)cccc2CN1C#N`, the Ki is 2.29 nM.
On the same count and under the same terms, to `CN1C(=O)[C@H](Cc2ccccc2)N(C(=O)COc2ccc(Cl)cc2Cl)CCCOc2c(Cl)cccc2CN1C#N` belongs 26.8 nM; to `CN(C(=O)[C@H](Cc1ccccc1)NC(=O)[C@@H](NC(=O)C1CCCC1)C(C)(C)C)N(C#N)Cc1ccc(Cl)cc1`, 23 nM.
On the same count and under the same terms, to `CN(C(=O)[C@H](Cc1cccs1)NC(=O)[C@@H](NC(=O)c1cccs1)C(C)(C)C)N(C#N)Cc1cccc(Cl)c1F` belongs 6.45 nM; to `CN(C(=O)[C@H](Cc1ccccc1)NC(=O)[C@@H](NC(=O)c1cccs1)C1CCCCC1)N(C#N)Cc1ccc(Cl)cc1`, 13 nM; to `CN(C(=O)[C@H](Cc1ccccc1)NC(=O)[C@@H](NC(=O)c1cccs1)C(C)(C)C)N(C#N)Cc1ccc(Cl)cc1`, 13.3 nM.
On the same count and under the same terms, as for `CN1C(=O)[C@H](Cc2ccccc2)N(C(=O)CNC(=O)c2cccs2)CC2(CC2)COc2c(Cl)cccc2CN1C#N`, the figure is 21.1 nM.

The test system of the next series is SARS-CoV-2. Nature of the series: microbe, parasite or virus in culture. To be noted: Severe acute respiratory syndrome coronavirus 2, JPN/TY/WK-521, VeroE6/TMPRSS2, 24 h, read-out: INH.
In the case of `CN1C(=O)[C@H](Cc2ccccc2)N(C(=O)CNC(=O)c2cccs2)CCCOc2c(Cl)cccc2CN1C#N`, the inhibition at 3.33 µM is 63%.
The same measure, in the same setting: to `CC(C)(C)[C@H](NC(=O)C(F)(F)F)C(=O)N1C[C@H]2[C@@H]([C@H]1C(=O)N[C@H](C#N)C[C@@H]1CCNC1=O)C2(C)C` belongs 93%.

The next series concerns the target T1, Replicase polyprotein 1ab.
Experiment: not given
Conditions: not given
This is another data set of the same source.
The IC50 is the concentration that gives 50% inhibition. A lower IC50 goes with higher potency. `CN1C(=O)[C@H](Cc2ccccc2)N(C(=O)CNC(=O)c2cccs2)CCCOc2c(Cl)cccc2CN1C#N`: 3 nM corresponded to half-maximal inhibition (IC50).
Still for that read-out and setting: as for `CN1C(=O)[C@H](Cc2ccccc2)N(C(=O)COc2ccc(Cl)cc2Cl)CCCOc2c(Cl)cccc2CN1C#N`, the figure is 38 nM.
With `CN1C(=O)[C@H](CCc2ccccc2)NC(=O)COCCOc2ccc(F)cc2CN1C#N`, inhibition was half-maximal at 1470 nM (IC50).
Still for that read-out and setting: to `CN(C(=O)[C@H](Cc1ccccc1)NC(=O)[C@@H](NC(=O)c1cccs1)C(C)(C)C)N(C#N)Cc1cccc(Cl)c1F` belongs 15 nM.
Same read-out and setting: as for `CN(C(=O)[C@H](Cc1ccccc1)NC(=O)[C@@H](NC(=O)C1CCCC1)C(C)(C)C)N(C#N)Cc1ccc(Cl)cc1`, the figure is 32 nM.
On the same count and under the same terms, to `CN(C(=O)[C@H](Cc1ccccc1F)NC(=O)[C@@H](NC(=O)c1cccs1)C(C)(C)C)N(C#N)Cc1cccc(Cl)c1F` belongs 19 nM; to `CN(C(=O)[C@H](Cc1cccs1)NC(=O)[C@@H](NC(=O)c1cccs1)C(C)(C)C)N(C#N)Cc1cccc(Cl)c1F`, 9 nM; to `CN1C(=O)[C@H](Cc2ccccc2)N(C(=O)COc2ccc(Cl)cc2Cl)CCCOc2ccc(Cl)c(F)c2CN1C#N`, 57 nM.
For `CN(C(=O)[C@H](Cc1ccccc1)NC(=O)[C@@H](NC(=O)c1cccs1)C1CCCCC1)N(C#N)Cc1ccc(Cl)cc1`, the IC50 was 18 nM.
Still for that read-out and setting: to `CN1C(=O)[C@H](Cc2ccccc2)NC(=O)COCCOCCOc2ccc(F)cc2CN1C#N` belongs 2610 nM.
In the case of `CN(C(=O)[C@H](Cc1ccccc1)NC(=O)[C@@H](NC(=O)c1cccs1)C(C)(C)C)N(C#N)Cc1ccc(Cl)cc1`, the IC50 was 19 nM.
Same read-out and setting: as for `CN1C(=O)[C@H](Cc2ccccc2)N(C(=O)CNC(=O)c2cccs2)CC2(CC2)COc2c(Cl)cccc2CN1C#N`, the figure is 30 nM.

The test system of another series is SARS-CoV-2. Nature of the series: microbe, parasite or virus in culture. As to conditions: Severe acute respiratory syndrome coronavirus 2, JPN/TY/WK-521, VeroE6/TMPRSS2. The source holds these as a separate data set.
As to `CC(C)(C)[C@H](NC(=O)C(F)(F)F)C(=O)N1C[C@H]2[C@@H]([C@H]1C(=O)N[C@H](C#N)C[C@@H]1CCNC1=O)C2(C)C`, half-maximal inhibition (IC50) was put at 160 nM.

System in another series: not listed separately
Nature of the series: Stability of compound in DMEM assessed as time required for 50% compound degradation at 100 uM incubated for 24 hrs by HPLC method.
Conditions: not given
For orientation: half-life means how long it takes for the measured level to halve. As for `CN1C(=O)[C@H](Cc2ccccc2)N(C(=O)CNC(=O)c2cccs2)CCCOc2c(Cl)cccc2CN1C#N`, the half-life at 24 h, 100 µM is 7.65 h.
As for `CN1C(=O)[C@H](Cc2ccccc2)N(C(=O)COc2ccc(Cl)cc2Cl)CCCOc2c(Cl)cccc2CN1C#N`, the half-life at 24 h, 100 µM is 1.76 h.

In the next series the target is Procathepsin L (Homo sapiens, UniProt P07711). Nature of the series: Inhibition of human cathepsin L using Z-Phe-Arg-pNA as substrate incubated for 60 mins.
Sequence of Procathepsin L (P07711 whole entry): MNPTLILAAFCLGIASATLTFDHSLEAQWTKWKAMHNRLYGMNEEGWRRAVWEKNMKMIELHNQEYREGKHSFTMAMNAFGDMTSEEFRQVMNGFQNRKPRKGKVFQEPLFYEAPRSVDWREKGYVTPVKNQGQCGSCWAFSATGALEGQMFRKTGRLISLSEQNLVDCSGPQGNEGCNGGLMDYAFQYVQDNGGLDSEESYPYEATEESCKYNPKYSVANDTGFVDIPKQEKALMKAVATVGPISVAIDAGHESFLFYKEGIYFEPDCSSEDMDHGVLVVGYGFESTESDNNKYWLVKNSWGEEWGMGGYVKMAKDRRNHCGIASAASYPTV
Conditions: not given
`CN(C(=O)[C@H](Cc1ccccc1)NC(=O)[C@@H](NC(=O)c1cccs1)C(C)(C)C)N(C#N)Cc1cccc(Cl)c1F` came in with a Ki of 93.5 nM.
The same measure, in the same setting: as for `CN(C(=O)[C@H](Cc1ccccc1)NC(=O)[C@@H](NC(=O)C1CCCC1)C(C)(C)C)N(C#N)Cc1ccc(Cl)cc1`, the figure is 344 nM; as for `CN(C(=O)[C@H](Cc1ccccc1F)NC(=O)[C@@H](NC(=O)c1cccs1)C(C)(C)C)N(C#N)Cc1cccc(Cl)c1F`, 49.6 nM; as for `CN(C(=O)[C@H](Cc1cccs1)NC(=O)[C@@H](NC(=O)c1cccs1)C(C)(C)C)N(C#N)Cc1cccc(Cl)c1F`, 130 nM.
Still for that read-out and setting: to `CN(C(=O)[C@H](Cc1ccccc1)NC(=O)[C@@H](NC(=O)c1cccs1)C1CCCCC1)N(C#N)Cc1ccc(Cl)cc1` belongs 25.1 nM.
In turn, `CN(C(=O)[C@H](Cc1ccccc1)NC(=O)[C@@H](NC(=O)c1cccs1)C(C)(C)C)N(C#N)Cc1ccc(Cl)cc1` displayed a Ki of 179 nM.

System in a further series: not listed separately
Nature of the series: in vitro. As to conditions: male, human, plasma.
Consider `COc1ccc([C@@H]2Sc3ccccc3N(CCN(C)C)C(=O)[C@@H]2OC(C)=O)cc1.Cl` [DILTIAZEM HYDROCHLORIDE], for which the half-life at 100 µM was 13.1 h.
Still for that read-out and setting: as for `CCN(CC)CCOC(=O)c1ccc(N)cc1.Cl` [PROCAINE HYDROCHLORIDE], the figure is 0.103 h.
In turn, `CN1C(=O)[C@H](Cc2ccccc2)N(C(=O)CNC(=O)c2cccs2)CCCOc2c(Cl)cccc2CN1C#N` showed a half-life at 100 µM of 3 h.
On the same count and under the same terms, to `CN1C(=O)[C@H](Cc2ccccc2)N(C(=O)COc2ccc(Cl)cc2Cl)CCCOc2c(Cl)cccc2CN1C#N` belongs 1.92 h.

Another series relates to SARS-CoV-2. Nature of the series: microbe, parasite or virus in culture. To be noted: Severe acute respiratory syndrome coronavirus 2, JPN/TY/WK-521, VeroE6/TMPRSS2, 24 h, read-out: INH. This is another data set of the same source.
For `CN1C(=O)[C@H](Cc2ccccc2)N(C(=O)COc2ccc(Cl)cc2Cl)CCCOc2c(Cl)cccc2CN1C#N`, the inhibition at […] was found to be 58%.

In a further series the test system is SARS-CoV-2. Nature of the series: microbe, parasite or virus in culture. As to conditions: Severe acute respiratory syndrome coronavirus 2, WK-521, Vero C1008.
`CC(C)(C)[C@H](NC(=O)C(F)(F)F)C(=O)N1C[C@H]2[C@@H]([C@H]1C(=O)N[C@H](C#N)C[C@@H]1CCNC1=O)C2(C)C` returned an IC50 of 940 nM.
